Measurements from article PMC10217546, “Antioxidant Activities of Dihydromyricetin Derivatives with Different Acyl Donor Chain Lengths Synthetized by Lipozyme TL IM” (Foods, 2023).
Like-named read-outs stand apart in the source and are kept apart here. Marks after values point to notes of the source that are not given here.

Tests used:
[1] = ABTS radical scavenging ability; settings: ABTS radical scavenging test, 30 °C, 6 min, 734 nm
Procedure: The ability of DHM and its acylated derivatives to scavenge ABTS radicals was evaluated using a previous method with some modification. Samples (0.1 mL, 0.01, 0.02, 0.04, 0.06, and 0.08 mg/mL) were added to 3.9 mL of ABTS solution and measured at 734 nm after incubation at 30 °C for 6 min. Vc (a water-soluble antioxidant) and TBHQ (a lipid soluble antioxidant) were used as controls. (3) ABTS radical scavenging activity (%) =(1−A1 - A2/A0) × 100 where A0, A1, and A2 represent the absorbance values of the ABTS-ethanol, ABTS-samples, and samples-ethanol mixtures, respectively.

[2] = DPPH radical scavenging ability; settings: for IC50 DPPH: DPPH radical scavenging test; for scavenging rate of DPPH free radicals: sample concentration 20 μg/mL, 30 min in the dark, 517 nm
Procedure: The method used to determine the abilities of DHM and its acylated derivatives was a previous method with some modifications. Two milliliters of DPPH (0.065 mg/mL) and 2 mL of the sample (3, 5, 10, 15, and 20 μg/mL) were added to a centrifuge tube and described at 517 nm after 30 min of reaction in a dark environment. Vc (a water-soluble antioxidant) and TBHQ (a lipid soluble antioxidant) were used as controls. (2) DPPH radical scavenging activity (%) =(1−A1 - A2/A0) × 100 where A0, A1, and A2 represent the absorbance values of the DPPH-ethanol, DPPH-sample, and sample-ethanol mixtures, respectively.

[3] = tested on: L-02 cells; assay: Cellular antioxidant activity (CAA) assay in L-02 cells; assay type: cell-based, Human
Procedure: Human normal hepatocytes (L-02 cells, passage number 4) were purchased from Cell Bank of Shanghai Institutes for Biological Sciences, Chinese Academy of Sciences (Shanghai, China) and cultured in RPMI 1640 medium (Invitrogen, Carlsbad, CA, USA) supplemented with 10% FBS and 1% penicillin-streptomycin double antibody and were cultured at 37 °C in 5% CO2.
The CAA assay was made using the method of Wolfe and Liu with modifications. L-02 cells were inoculated in black 96-well plates (6 × 10^4 /well, 100 μL) and incubated for 24 h. After removing culture medium, and the cells were washed with PBS and treated with the samples and DCFH-DA (25 μmol/L) for 1 h. Then, the cells were divided into two groups. One group was washed with PBS, and ABAP (600 μmol/L, 100 μL) was added to each well. Another group was only treated with adding 100 μL of ABAP (600 μmol/L) without washing. The black 96-well plates were measured by a Thermo Scientific Fluoroskan Ascent FL (Thermo Fisher Scientific, Waltham, MA, USA) every 5 min for 1 h at an emission wavelength of 538 nm and an excitation wavelength of 485 nm. Three control wells and one blank well were set. The control well was made up of the cells treated with ABAP but without samples, and the blank well was made up of the cells treated without ABAP and samples. Quercetin was used as the positive control. (6) CAA unit=1 - ∫SA/∫CA × 100 where ∫SA represents the area integral under the sample fluorescence value versus time curve and ∫CA represents the area integral under the control fluorescence value versus time curve.

[4] = Partition coefficient of lipids and water (log P), n-octanol/water by HPLC; assay type: physicochemical
Procedure: The lipophilicity of DHM and its derivatives was evaluated using log P, which was determined by a previous method with several modifications. Two milligrams of sample were dissolved in n-octanol solution (4 mL) saturated by water and analyzed using HPLC at 298 nm (A0). The n-octanol solution (1 mL) saturated by water containing the sample was mixed with water solution (1 mL) saturated by n-octanoland and then shaken using a constant-temperature water bath oscillator (Tianjin, China) at 30 °C for 24 h at 150 rpm. The ultraviolet absorbance of the upper solution was analyzed at 298 nm (Ax). The calculation equation of log P is as follows:(1) log P=log Ax / (A0 − Ax)

[5] = PBS wash between antioxidant and ABAP treatments, read-out: EC50 CAA Unit Wash
[6] = no PBS wash between antioxidant and ABAP treatments, read-out: EC50 CAA Unit No Wash
[7] = n-octanol/water, shaken at 30 °C for 24 h, HPLC at 298 nm
[8] = Homo sapiens, L02, PBS wash between antioxidant and ABAP treatments, read-out: EC50 CAA Unit Wash
[9] = Homo sapiens, L02, no PBS wash between antioxidant and ABAP treatments, read-out: EC50 CAA Unit No Wash

| SMILES | IC50 ABTS [1] | IC50 DPPH [2] | EC50 [3, 5] [µM] | EC50 [3, 6] [µM] | log P [4, 7] | scavenging rate of DPPH free radicals [2] [%] | EC50 [3, 8] [µM] | EC50 [3, 9] [µM] | logP at 24 h [4, 7] | log P [4] |
| --- | --- | --- | --- | --- | --- | --- | --- | --- | --- | --- |
| CC(C)(C)c1cc(O)ccc1O [TBHQ, tert-butylhydroquinone, reference compound] | 79.34 ± 3.37 ^a μg/mL | 7.55 ± 0.18 ^ab μg/mL | – | – | – | – | – | – | – | – |
| CC(=O)OC1C(=O)c2c(O)cc(O)cc2OC1c1cc(O)c(O)c(O)c1 (stereo not drawn) [C2-DHM, 3-O-acetyl-DHM] | 58.29 ± 2.20 ^a μg/mL | 9.07 ± 0.10 ^bc μg/mL | 172 ± 8.84 | 77.8 ± 3.81 | 1.32 | 92.58 ± 1.33 | – | – | – | – |
| O=C1c2c(O)cc(O)cc2O[C@H](c2cc(O)c(O)c(O)c2)[C@H]1O [DHM, Dihydromyricetin] | 46.51 ± 2.19 ^a μg/mL | 9.04 ± 0.09 ^bc μg/mL | – | – | – | 93.37 ± 1.83 | 226 ± 4.67 | 90.2 ± 5.02 | 0.81 | – |
| CCCCCC(=O)OC1C(=O)c2c(O)cc(O)cc2OC1c1cc(O)c(O)c(O)c1 (stereo not drawn) [C6-DHM, 3-O-hexanoyl-DHM] | 77.22 ± 1.46 ^a μg/mL | 11.17 ± 0.04 ^bc μg/mL | 52.9 ± 2.69 | 65.2 ± 3 | 1.67 | 82.53 ± 1.98 | – | – | – | – |
| CCCCCCCCCCCC(=O)OC1C(=O)c2c(O)cc(O)cc2OC1c1cc(O)c(O)c(O)c1 (stereo not drawn) [C12-DHM, 3-O-lauroyl-DHM] | 360.69 ± 50.13 ^b μg/mL | 35.93 ± 5.63 ^d μg/mL | 122 ± 9.48 | 234 ± 9.69 | – | 29.62 ± 4.88 | – | – | – | 1.80 |
| O=C1O[C@H]([C@@H](O)CO)C(O)=C1O [Vc, L-ascorbic acid, reference compound] | 61.02 ± 2.15 ^a μg/mL | 4.23 ± 1.38 ^a μg/mL | – | – | – | – | – | – | – | – |
| O=c1c(O)c(-c2ccc(O)c(O)c2)oc2cc(O)cc(O)c12 [Quercetin, reference compound] | – | – | – | – | – | – | 29 ± 0.36 | 33.9 ± 3.67 | – | – |
| CCCCCCCC(=O)OC1C(=O)c2c(O)cc(O)cc2OC1c1cc(O)c(O)c(O)c1 (stereo not drawn) [C8-DHM, 3-O-octanoyl-DHM] | 80.15 ± 0.42 ^a μg/mL | 12.69 ± 0.09 ^c μg/mL | 35.14 ± 0.29 | 45.4 ± 0.74 | – | 74.14 ± 0.40 | – | – | – | 1.73 |
| CCCC(=O)OC1C(=O)c2c(O)cc(O)cc2OC1c1cc(O)c(O)c(O)c1 (stereo not drawn) [C4-DHM, 3-O-butyryl-DHM] | 56.30 ± 1.03 ^a μg/mL | 9.08 ± 0.25 ^bc μg/mL | 60.7 ± 0.64 | 60.8 ± 6.23 | – | 92.70 ± 0.79 | – | – | – | 1.50 |
